Assay [1] has as its system oocyte not expressing P2X and GABA receptors. Kind of assay: Calcium green fluorescence recording, oocytes expressing no receptors. In kind it is cell-based, Xenopus. As to conditions: calcium green probe, FIG. 1. On the procedure: (§1) Then, using video-microscopy (Nikon), the fluorescence emitted by oocytes maintained in a standard solution (Ringer solution containing 1.8 mM calcium chloride), perfused at 3 ml/min, has been recorded. […] Variations in fluorescence were analysed using IpLab software.

Assay [2] has as its target T1, rat P2X2 receptors (Rattus norvegicus, UniProt P49653).
T1 construct: expressed in transfected cells; host or cells: Xenopus oocytes (nuclear cDNA injection)
T1 sequence (P49653 1-472): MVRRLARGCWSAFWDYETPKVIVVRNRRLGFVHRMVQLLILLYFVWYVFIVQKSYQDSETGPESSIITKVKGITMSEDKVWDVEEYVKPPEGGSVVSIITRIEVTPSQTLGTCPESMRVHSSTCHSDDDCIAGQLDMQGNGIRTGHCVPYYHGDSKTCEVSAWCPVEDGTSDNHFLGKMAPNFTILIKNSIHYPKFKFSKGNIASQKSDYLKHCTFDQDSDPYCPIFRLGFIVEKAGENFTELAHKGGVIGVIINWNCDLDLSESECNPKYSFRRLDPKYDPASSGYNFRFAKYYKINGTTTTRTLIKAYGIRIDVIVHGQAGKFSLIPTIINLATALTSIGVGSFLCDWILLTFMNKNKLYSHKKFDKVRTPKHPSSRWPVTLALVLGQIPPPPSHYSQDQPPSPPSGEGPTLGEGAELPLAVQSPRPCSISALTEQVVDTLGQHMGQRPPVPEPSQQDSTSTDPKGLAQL
Kind of assay: Calcium green fluorescence recording, oocytes expressing P2X2 receptors alone. As to conditions: oocytes expressing only P2X2 receptors, FIG. 2; for fluorescence (calcium influx) on application of the substance alone: calcium green probe. It counts as cell-based. The procedure: as §1

Assay [3] relates to P2X2 and GABA-A receptors (rat GABA-A alpha2 beta3). In kind it is cell-based. As to conditions: for fluorescence of the calcium probe on application of the substance alone: 100 μM, oocytes co-expressing P2X2 and GABA-A receptors, resting potential. The procedure:
(§2) Variations in fluorescence were analysed using IpLab software.

Assay [4] has as its target T2, P2X2 and GABA-A receptors (rat GABA-A alpha2 beta3) (Rattus norvegicus, UniProt P23576+P63079).
T2 construct: expressed in transfected cells; host or cells: Xenopus oocytes (nuclear cDNA injection)
It counts as cell-based. The procedure: as §2

[5] abbreviates: oocyte co-expressing GABA-A and P2X2 receptors, FIG. 4.

T2 sequence (P23576 29-451): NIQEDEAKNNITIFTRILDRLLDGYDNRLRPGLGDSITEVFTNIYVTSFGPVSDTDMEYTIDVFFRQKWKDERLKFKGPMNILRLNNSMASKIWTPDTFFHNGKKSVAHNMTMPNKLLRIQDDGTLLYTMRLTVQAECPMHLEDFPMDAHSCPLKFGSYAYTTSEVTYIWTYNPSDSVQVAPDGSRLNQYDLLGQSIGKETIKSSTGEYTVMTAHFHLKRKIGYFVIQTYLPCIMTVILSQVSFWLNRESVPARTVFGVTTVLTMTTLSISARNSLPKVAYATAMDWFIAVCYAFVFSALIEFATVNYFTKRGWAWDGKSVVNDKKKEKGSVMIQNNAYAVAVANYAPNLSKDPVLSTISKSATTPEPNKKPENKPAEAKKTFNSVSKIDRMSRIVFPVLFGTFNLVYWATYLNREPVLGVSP
T2 sequence (P63079 26-473): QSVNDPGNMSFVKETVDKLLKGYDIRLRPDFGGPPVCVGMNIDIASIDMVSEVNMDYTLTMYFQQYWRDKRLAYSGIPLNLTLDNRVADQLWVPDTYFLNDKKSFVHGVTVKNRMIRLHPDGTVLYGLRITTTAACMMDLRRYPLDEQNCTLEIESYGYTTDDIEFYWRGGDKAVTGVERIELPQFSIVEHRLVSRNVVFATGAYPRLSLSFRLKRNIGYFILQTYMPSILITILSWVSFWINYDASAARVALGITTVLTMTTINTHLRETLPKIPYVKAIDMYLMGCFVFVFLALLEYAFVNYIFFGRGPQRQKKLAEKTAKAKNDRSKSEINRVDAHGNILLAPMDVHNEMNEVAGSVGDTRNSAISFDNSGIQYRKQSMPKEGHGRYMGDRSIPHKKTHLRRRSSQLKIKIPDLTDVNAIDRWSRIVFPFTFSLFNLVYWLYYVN

Turning to `Nc1ncnc2c1ncn2[C@@H]1O[C@H](COP(=O)(O)OP(=O)(O)OP(=O)(O)O)[C@@H](O)[C@H]1O` [ATP], the “modification of the fluorescence on application” value in assay [1] was “No modification”. Further, the “fluorescence (calcium influx) on application of the substance alone” value in assay [2] is “transient increase in fluorescence”. Besides, the “fluorescence of the calcium probe on application of the substance alone” value in assay [3] is “marked transient increase”.
On to `NCCCC(=O)O` [GABA, gamma-Aminobutyric acid], for which the “modification of the fluorescence on application” value in assay [1] is recorded as “No modification”. For the same compound, the “effect of GABA on the increase in fluorescence induced by ATP” value in assay [2] (co-application ATP+GABA) was “not altered”. The “fluorescence (calcium influx) on application of the substance alone” value in assay [2] is “no effect”. Moreover, the “percentage inhibition of the ATP calcium response” value in assay [4] (co-application ATP+GABA 100 μM of each, depends on expression ratio of P2X and GABA receptors) was 20-25%. In assay [4] (setting [5]), the “fluorescence intensity when GABA is applied at the peak of the ATP response” value was “decrease in fluorescence intensity”; the “fluorescence when application of GABA is stopped during co-application of ATP and GABA” value is recorded as “increase in fluorescence”. For the same compound, the “fluorescence of the calcium probe on application of the substance alone” value in assay [3] is reported as “does not modify fluorescence intensity”. The “calcium response on co-application ATP+GABA compared with ATP alone” value in assay [3] (ATP+GABA 100 μM of each, FIG. 3) is reported as “lower calcium response”.
